These compounds were tested on spontaneous hypertensive rat (assay: Natriuretic activity in the spontaneous hypertensive rat protocol). Conditions: at a hypotensive dose (Compound G: 3.12 mg/kg i.p.).
Format: in vivo

For `NC1CCc2cc(O)c(O)cc2C1` (stereo not shown) [ADTN, 6,7-Dihydroxy-2-aminotetralin, reference compound], the natriuretic activity was “inactive”.
With `NC1CCc2cc(O)c(O)c(Cl)c2C1` (stereo not shown) [Compound G, 8-Chloro-6,7-dihydroxy-2-aminotetralin] the natriuretic activity was “potent natriuretic activity”.

These compounds were tested on a2 (assay: Clonidine binding protocol (a2 activity)). Conditions: not given.

`NC1CCc2cc(O)c(O)cc2C1` (stereo not shown) [ADTN, 6,7-Dihydroxy-2-aminotetralin, reference compound] was tested, and the a2 activity was “demonstrated a2 activity”.
In the case of `NC1CCc2c(cc(O)c(O)c2F)C1` (stereo not shown) [Compound D, 5-Fluoro-6,7-dihydroxy-2-aminotetralin], the a2 activity is reported as “demonstrated a2 activity”.
`NC1CCc2cc(O)c(O)c(F)c2C1` (stereo not shown) [Compound E, 8-Fluoro-6,7-dihydroxy-2-aminotetralin] was tested, and the a2 activity was “demonstrated a2 activity”.
In the case of `NC1CCc2c(cc(O)c(O)c2Cl)C1` (stereo not shown) [Compound F, 5-Chloro-6,7-dihydroxy-2-aminotetralin], the a2 activity is reported as “demonstrated a2 activity”.
In the case of `NC1CCc2cc(O)c(O)c(Cl)c2C1` (stereo not shown) [Compound G, 8-Chloro-6,7-dihydroxy-2-aminotetralin], the a2 activity is reported as “demonstrated a2 activity”.

The compounds below were run against T1, D1 receptors (Rattus norvegicus, UniProt P18901) (assay: D1 activity - competition for 3H-fenoldopam binding in rat striatum (caudate) membranes). Conditions: not given.
T1 construct: homogenized and washed membrane preparations from rat caudate nuclei; from tissue; host or cells: rat caudate nuclei (striatum) membranes
Experimental: B) D1 Activity - Competition for ^3H-Fenoldopam in Rat Striatum Tissue. Test Procedure
The assay was performed using homogenized and washed membrane preparations from rat caudate nuclei. Tissues were preincubated for 15 min at 37° in 50 mM Tris-HCI, pH 7.4, 10 mM magnesium sulfate, 2 mM ethylenediamine tetra-acetic acid and 0.1 % ascorbate. The binding assay was then carried out in the above buffer also containing 10 µm pargyline, ^3H-fenoldopam and test compounds. The membrane- bound radioactivity was trapped by rapid filtration over glass fiber (GF/C) filters. In each experiment the amount of ^3H-fenoldopam bound was determined in the absence (total) and presence (non-specific) of 10^-6M (+)-butaclamol, the difference yielding specific ^3H-fenoldopam binding. The ability of each compound to compete with ^3H-fenoldopam (approximately 2.0 nM) was tested at concentrations of 10-^7 and 10^-6M.

T1 sequence (P18901 whole entry): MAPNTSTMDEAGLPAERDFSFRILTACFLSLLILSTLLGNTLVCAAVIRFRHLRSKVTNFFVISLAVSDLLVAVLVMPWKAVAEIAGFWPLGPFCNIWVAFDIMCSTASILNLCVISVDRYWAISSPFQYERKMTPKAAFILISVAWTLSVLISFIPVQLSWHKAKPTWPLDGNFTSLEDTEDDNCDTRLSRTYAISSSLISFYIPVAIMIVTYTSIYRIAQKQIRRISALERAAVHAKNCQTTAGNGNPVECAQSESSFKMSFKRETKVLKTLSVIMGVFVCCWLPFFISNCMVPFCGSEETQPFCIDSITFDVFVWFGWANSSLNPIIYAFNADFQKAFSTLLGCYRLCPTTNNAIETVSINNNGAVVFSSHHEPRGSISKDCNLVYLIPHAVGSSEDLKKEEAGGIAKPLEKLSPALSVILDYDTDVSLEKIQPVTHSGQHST

`NC1CCc2cc(O)c(O)c(Cl)c2C1` (stereo not shown) [Compound G, 8-Chloro-6,7-dihydroxy-2-aminotetralin] was tested, and the Kb was 43 nM.

Same assay, conditions: competition with 3H-fenoldopam (approximately 2.0 nM), rat caudate membranes; figure in parentheses = number of tests; read-out: D1 (KBind, KB)

Going from `CCCN(CCc1ccc(O)cc1)C1CCc2cc(O)c(O)c(Cl)c2C1` (stereo not shown) [A, 8-Chloro-6,7-dihydroxy-2-[N-(n-propyl)-N-(4-hydroxyphenethyl)-amino] tetralin] to `Oc1ccc(CCNC2CCc3cc(O)c(O)c(Cl)c3C2)cc1` (stereo not shown) [B, 8-Chloro-6,7-dihydroxy-2-(4-hydroxyphenethylamino)tetralin], the Kb rises from 270 nM to 1450 nM (5.4-fold).

Compared with `CCCN(CCC)C1CCc2cc(O)c(O)c(Cl)c2C1` (stereo not shown) [C, 8-Chloro-6,7-dihydroxy-2-di-n-propyl aminotetralin], `CCCN(CCC)C1CCc2cc(Cl)c(O)cc2C1` (stereo not shown) [M, reference compound] is 7.6-fold higher in Kb: 620 nM for the first, 4710 nM for the second.

`NC1CCc2c(cc(O)c(O)c2F)C1` (stereo not shown) [Compound D, 5-Fluoro-6,7-dihydroxy-2-aminotetralin] and `NC1CCc2cc(O)c(O)c(F)c2C1` (stereo not shown) [Compound E, 8-Fluoro-6,7-dihydroxy-2-aminotetralin] are within 1.5-fold of each other in Kb: 72 nM for the first, 62 nM for the second.

Going from `NC1CCc2c(cc(O)c(O)c2Cl)C1` (stereo not shown) [Compound F, 5-Chloro-6,7-dihydroxy-2-aminotetralin] to `NC1CCc2c(ccc(O)c2Cl)C1` (stereo not shown) [O, reference compound], the Kb rises from 640 nM to over 10000 nM.

Going from `NC1CCc2cc(F)c(O)cc2C1` (stereo not shown) [L, reference compound] to `NC1CCc2cc(O)c(Cl)cc2C1` (stereo not shown) [N, reference compound], the Kb rises from 370 nM to 1970 nM (5.3-fold).

What follows are compounds tested against T2, D2 receptors (Bos taurus, UniProt P20288) (assay: D2 activity - competition for 3H-spiroperidol binding in bovine anterior pituitary membranes). Conditions: competition with 3H-spiroperidol (approximately .25 nM), bovine anterior pituitary membranes; figure in parentheses = number of tests; read-out: D2 (KBind, KB).
T2 construct: homogenized and washed membrane preparations from bovine anterior pituitary; from tissue; host or cells: bovine anterior pituitary membranes
Experimental: A) D2 Activity - Competition for ^3H-Spiroperidol in Bovine Anterior Pituitary Tissue. Test Procedure
The assay was performed using homogenized and washed membrane preparations from bovine anterior pituitary. Incubation proceeded for 20 minutes at 37° in 50 mM Tris-HCI, pH 7.4, containing 10 mM magnesium sulfate, 2 mM ethylenediamine tetra-acetic acid and 0.1 % ascorbate. The membrane- bound radioactivity was trapped by rapid filtration over glass fiber (GF/C) filters. In each experiment, the amount of ^3H-spiroperidol bound was determined in the absence (total) and presence (non-specific) of 10^-6M (+)-butaclamol, the difference yielding specific ^3H-spiroperidol binding. The ability of each compound to compete with ^3H-spiroperidol (approximately .25 nM) was tested at concentrations of 10-^7 and 10-^5.

T2 sequence (P20288 whole entry): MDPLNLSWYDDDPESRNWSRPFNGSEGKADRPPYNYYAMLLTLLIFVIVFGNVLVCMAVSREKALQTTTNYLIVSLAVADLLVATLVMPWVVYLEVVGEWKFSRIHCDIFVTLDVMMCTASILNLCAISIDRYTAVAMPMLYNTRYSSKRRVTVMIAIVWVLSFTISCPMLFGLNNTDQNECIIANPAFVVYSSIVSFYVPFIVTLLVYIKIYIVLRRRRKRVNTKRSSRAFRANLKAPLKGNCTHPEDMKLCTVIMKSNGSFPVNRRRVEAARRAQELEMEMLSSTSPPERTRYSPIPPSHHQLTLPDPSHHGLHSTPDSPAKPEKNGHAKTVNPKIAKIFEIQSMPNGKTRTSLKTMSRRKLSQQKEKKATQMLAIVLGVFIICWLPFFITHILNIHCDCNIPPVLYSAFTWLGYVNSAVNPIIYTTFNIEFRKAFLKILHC

First: CCCN(CCc1ccc(O)cc1)C1CCc2cc(O)c(O)c(Cl)c2C1 (stereo not shown) [A, 8-Chloro-6,7-dihydroxy-2-[N-(n-propyl)-N-(4-hydroxyphenethyl)-amino] tetralin]
Second: Oc1ccc(CCNC2CCc3cc(O)c(O)c(Cl)c3C2)cc1 (stereo not shown) [B, 8-Chloro-6,7-dihydroxy-2-(4-hydroxyphenethylamino)tetralin]
The Kb of the first is 12-fold lower: 33 nM for the first, 405 nM for the second.

Compared with `CCCN(CCC)C1CCc2cc(O)c(O)c(Cl)c2C1` (stereo not shown) [C, 8-Chloro-6,7-dihydroxy-2-di-n-propyl aminotetralin], `CCCN(CCC)C1CCc2cc(Cl)c(O)cc2C1` (stereo not shown) [M, reference compound] is 6.8-fold higher in Kb: 240 nM for the first, 1630 nM for the second.

Compared with `NC1CCc2c(cc(O)c(O)c2F)C1` (stereo not shown) [Compound D, 5-Fluoro-6,7-dihydroxy-2-aminotetralin], `NC1CCc2cc(O)c(O)c(F)c2C1` (stereo not shown) [Compound E, 8-Fluoro-6,7-dihydroxy-2-aminotetralin] is 2.4-fold higher in Kb: 520 nM for the first, 1270 nM for the second.

Compared with `NC1CCc2c(cc(O)c(O)c2Cl)C1` (stereo not shown) [Compound F, 5-Chloro-6,7-dihydroxy-2-aminotetralin], `NC1CCc2cc(O)c(O)c(Cl)c2C1` (stereo not shown) [Compound G, 8-Chloro-6,7-dihydroxy-2-aminotetralin] is 6.7-fold higher in Kb: 470 nM for the first, 3160 nM for the second.

First: NC1CCc2cc(F)c(O)cc2C1 (stereo not shown) [L, reference compound]
Second: NC1CCc2cc(O)c(Cl)cc2C1 (stereo not shown) [N, reference compound]
The Kb of the first is 6.8-fold lower: 660 nM for the first, 4470 nM for the second.

With `NC1CCc2c(ccc(O)c2Cl)C1` (stereo not shown) [O, reference compound] the Kb was 11600 nM.

Same assay, conditions: selectivity ratio from the D1 and D2 binding data of Tables I and II; n to 1 = D2 selective, 1 to n = D1 selective

`NC1CCc2cc(O)c(O)cc2C1` (stereo not shown) [ADTN, 6,7-Dihydroxy-2-aminotetralin, reference compound] and `NC1CCc2c(cc(O)c(O)c2F)C1` (stereo not shown) [Compound D, 5-Fluoro-6,7-dihydroxy-2-aminotetralin] cannot be ordered by “D2 to D1 ratios” value: 1 to 3 for the first, 1 to 7 for the second.

`NC1CCc2cc(O)c(O)c(F)c2C1` (stereo not shown) [Compound E, 8-Fluoro-6,7-dihydroxy-2-aminotetralin] and `NC1CCc2cc(O)c(O)c(Cl)c2C1` (stereo not shown) [Compound G, 8-Chloro-6,7-dihydroxy-2-aminotetralin] cannot be ordered by “D2 to D1 ratios” value: 1 to 27 for the first, 1 to 80 for the second.

Each compound was assayed on rabbit ear artery (assay: Standard rabbit ear artery protocol for pre-junctional dopaminergic activity). Conditions: ED50 for Compound D.

Going from `NC1CCc2c(cc(O)c(O)c2F)C1` (stereo not shown) [Compound D, 5-Fluoro-6,7-dihydroxy-2-aminotetralin] to `NC1CCc2cc(O)c(O)c(F)c2C1` (stereo not shown) [Compound E, 8-Fluoro-6,7-dihydroxy-2-aminotetralin], the EC50 rises from 2.14 nM to 5 nM (2.3-fold).

First: NC1CCc2c(cc(O)c(O)c2Cl)C1 (stereo not shown) [Compound F, 5-Chloro-6,7-dihydroxy-2-aminotetralin]
Second: NC1CCc2cc(O)c(O)c(Cl)c2C1 (stereo not shown) [Compound G, 8-Chloro-6,7-dihydroxy-2-aminotetralin]
The EC50 of the first is 10-fold lower: 50 nM for the first, 513 nM for the second.
